# System: freshly isolated human lymphoma B cells
# Assay: Rituximab-mediated CDC of freshly isolated human lymphoma B cells, MTT assay
# Type: cell-based
# Settings: 10 mg/ml MβCD 30 minutes; 400 μg/ml rituximab, 10% serum
# Procedure: To extend these observations the influence of cholesterol depletion was studied in freshly isolated human lymphoma B cells. Tumor cells of three mantle cell lymphomas and a small B cell lymphoma were isolated out of bone marrow (10 ml) aspirated from the hip. The cell suspension was diluted twice with PBS (final volume 20 ml). 3 ml of Histopaque-1077 (Sigma Aldrich) was pipetted into two conical centrifuge tubes. 10 ml of diluted bone marrow was slowly layered on the top of Histopaque layer. Probes were centrifuged (400 g, 15 minutes, 25° C.) without brake. The white blood cell ring and plasma were isolated and washed twice with PBS. The leucocyte pellet was resuspeneded in 5 ml medium (RPMI or OptiMEM) and counted in a Bürker chamber using Turk dye. Cells were incubated with either diluent or MβCD (10 mg/ml) for 30 minutes. Treated cells were analyzed for their capacity to bind CD20 mAb as well as sensitivity for rituximab-mediated CDC induction.
# For the rituximab-mediated CDC human CD20-positive lymphoma B cells were incubated with either diluent or 10 mg/ml MβCD for 30 minutes. […] The cytotoxic effects were measured in a MTT assay.
substance,measurement,value
"rituximab: anti-CD20 antibody Rituxan/MabThera, type I",rituximab-mediated CDC,significantly decreased
